In ChEMBL document CHEMBL5365406, “Inhibitors for metallo-β-lactamases from the B1 and B3 subgroups provide an avenue to combat a major mechanism of antibiotic resistance” (Bioorg Med Chem Lett, 2023):
The source made the active and inactive calls. The rule behind the calls is not given here.

How the values were obtained:
Bacteria [1] = test: Inhibition of AIM-1 (unknown origin) at 10 uM relative to control
[2] = target: Metallo-beta-lactamase type 2 (Bacteria) (UniProt C7C422); test: Inhibition of NDM-1 (unknown origin) at 10 uM relative to control
Sequence of Metallo-beta-lactamase type 2 (Bacteria) (C7C422 whole entry): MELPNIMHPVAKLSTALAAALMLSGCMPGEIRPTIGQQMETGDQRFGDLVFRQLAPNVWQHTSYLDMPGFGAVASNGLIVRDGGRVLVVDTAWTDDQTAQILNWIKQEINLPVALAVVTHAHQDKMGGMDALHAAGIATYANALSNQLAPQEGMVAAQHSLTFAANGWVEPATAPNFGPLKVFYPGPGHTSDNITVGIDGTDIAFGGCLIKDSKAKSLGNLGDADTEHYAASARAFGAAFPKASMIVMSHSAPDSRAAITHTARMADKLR

[3] = target: Metallo-beta-lactamase type 2 (Bacteria) (UniProt C7C422); test: Uncompetitive inhibition of NDM-1 (unknown origin) using penicillin G as substrate by Michaelis-Menten equation based kinetic analysis
Escherichia coli [4] = test: Antagonistic antibacterial activity against Escherichia coli expressing AIM-1 in presence of meropenem by checkerboard sensitivity assay; assay type: functional, organism-based
[5] = Inhibition of CphA (unknown origin) using meropenem as substrate; parameters: species or system Bacteria
Escherichia coli [6] = test: Synergistic antibacterial activity against Escherichia coli expressing NDM-1 in presence of penicillin G by checkerboard sensitivity assay; assay type: functional, organism-based
Escherichia coli [7] = test: Antagonistic antibacterial activity against Escherichia coli expressing AIM-1 in presence of cefuroxime by checkerboard sensitivity assay; assay type: functional, organism-based
Escherichia coli [8] = test: Synergistic antibacterial activity against Escherichia coli expressing CphA in presence of meropenem by checkerboard sensitivity assay; assay type: functional, organism-based
Escherichia coli [9] = test: Synergistic antibacterial activity against Escherichia coli expressing NDM-1 in presence of cefuroxime by checkerboard sensitivity assay; assay type: functional, organism-based
Escherichia coli [10] = test: Synergistic antibacterial activity against Escherichia coli expressing CphA in presence of cefuroxime by checkerboard sensitivity assay; assay type: functional, organism-based
Escherichia coli [11] = test: Antagonistic antibacterial activity against Escherichia coli expressing NDM-1 in presence of meropenem by checkerboard sensitivity assay; assay type: functional, organism-based
Bacteria [12] = test: Competitive inhibition of AIM-1 (unknown origin) using cefuroxime as substrate by Michaelis-Menten equation based kinetic analysis
[13] = target: Metallo-beta-lactamase type 2 (Bacteria) (UniProt C7C422); test: Competitive inhibition of NDM-1 (unknown origin) using penicillin G as substrate by Michaelis-Menten equation based kinetic analysis
Escherichia coli [14] = test: Antagonistic antibacterial activity against Escherichia coli expressing AIM-1 in presence of penicillin G by checkerboard sensitivity assay; assay type: functional, organism-based
Bacteria [15] = test: Uncompetitive inhibition of AIM-1 (unknown origin) using cefuroxime as substrate by Michaelis-Menten equation based kinetic analysis
Escherichia coli [16] = test: Synergistic antibacterial activity against Escherichia coli expressing CphA in presence of penicillin G by checkerboard sensitivity assay; assay type: functional, organism-based
Escherichia coli [17] = test: Synergistic antibacterial activity against Escherichia coli expressing AIM-1 in presence of penicillin G by checkerboard sensitivity assay; assay type: functional, organism-based
Escherichia coli [18] = test: Synergistic antibacterial activity against Escherichia coli expressing AIM-1 in presence of meropenem by checkerboard sensitivity assay; assay type: functional, organism-based
Escherichia coli [19] = test: Synergistic antibacterial activity against Escherichia coli expressing AIM-1 in presence of cefuroxime by checkerboard sensitivity assay; assay type: functional, organism-based
[20] = Stability of the compound in NaBH4/ethanol assessed as oxidation measured after 24 hrs at room temperature; assay type: physicochemical

Row | inhibition (Bacteria [1]) | inhibition [2] | Kiuc [3] | Kic (Bacteria [12]) | Kic [13] | Kiuc (Bacteria [15]) | Structure (SMILES) | further results
1 | 39% | 40% |  |  |  |  | N#Cc1c(-c2ccccc2)c(-c2ccccc2)n(Cc2ccccc2)c1/N=C/c1ccc(C(=O)O)cc1 | 
2 | inactive | inactive |  |  |  |  | COC(=O)c1ccc(-c2c(C#N)c(N)n(Cc3ccccc3)c2-c2ccc(C(=O)OC)cc2)cc1 | 
3 | 42% | 57% | 11 µM | 4.5 µM | 1.7 µM | 35 µM | N#Cc1c(-c2ccccc2)c(-c2ccccc2)n(Cc2ccccc2)c1/N=C/c1cccs1 | Activity (Escherichia coli [4]): Active; IC50 [5]: 57 µM; Activity (Escherichia coli [6]): Active; Activity (Escherichia coli [7]): Active; Activity (Escherichia coli [8]): Active; Activity (Escherichia coli [9]): Active; Activity (Escherichia coli [10]): Active; Activity (Escherichia coli [11]): Active; Activity (Escherichia coli [14]): Active; Activity (Escherichia coli [16]): Active
4 | 19% | 27% | 4.4 µM | 6.4 µM | 34 µM | 72 µM | COC(=O)c1ccc(/C=N/c2c(C#N)c(-c3ccccc3)c(-c3ccccc3)n2Cc2ccccc2)cc1 | 
5 | 42% | 47% | 5 µM | 11 µM | 9 µM | 19 µM | N#Cc1c(-c2ccccc2)c(-c2ccccc2)n(Cc2ccccc2)c1NC(=O)c1ccccc1 | Activity (Escherichia coli [4]): Active; Activity (Escherichia coli [6]): Active; Activity (Escherichia coli [7]): Active; Activity (Escherichia coli [8]): Active; Activity (Escherichia coli [9]): Active; Activity (Escherichia coli [10]): Active; Activity (Escherichia coli [11]): Active; Activity (Escherichia coli [17]): Active; Activity (Escherichia coli [16]): Active
6 | 25% | 29% |  |  |  |  | N#Cc1c(-c2ccccc2)c(-c2ccccc2)n(Cc2ccccc2)c1NCc1cccs1 | 
7 | 61% | 49% | 0.9 µM | 4.4 µM | 1.3 µM | 4.7 µM | N#Cc1c(-c2ccccc2)c(-c2ccccc2)n(Cc2ccccc2)c1/N=C/c1ccc(O)cc1 | Activity (Escherichia coli [18]): Active; IC50 [5]: 45 µM; Activity (Escherichia coli [19]): Active; Activity (Escherichia coli [6]): Active; Activity (Escherichia coli [8]): Active; Activity (Escherichia coli [9]): Active; Activity (Escherichia coli [10]): Active; Activity (Escherichia coli [11]): Active; Activity (Escherichia coli [14]): Active; Activity (Escherichia coli [16]): Active
8 | 26% | 50% |  |  |  |  | N#Cc1c(-c2ccccc2)c(-c2ccccc2)n(Cc2ccccc2)c1/N=C/c1ccc2ccccc2c1 | 
9 | inactive | inactive |  |  |  |  | N#Cc1c(-c2ccc(C(=O)O)cc2)c(-c2ccc(C(=O)O)cc2)n(Cc2ccccc2)c1N | 
10 | 10% | 14% |  |  |  |  | CC(=O)Nc1ccc(/C=N/c2c(C#N)c(-c3ccccc3)c(-c3ccccc3)n2Cc2ccccc2)cc1 | 
11 | 42% | 38% | 6 µM | 3.6 µM | 3.2 µM | 11 µM | N#Cc1c(-c2ccccc2)c(-c2ccccc2)n(Cc2ccccc2)c1/N=C/c1ccccc1 | Activity (Escherichia coli [18]): Active; IC50 [5]: 75 µM; Activity (Escherichia coli [19]): Active; Activity (Escherichia coli [6]): Active; Activity (Escherichia coli [8]): Active; Activity (Escherichia coli [9]): Active; Activity (Escherichia coli [10]): Active; Activity (Escherichia coli [11]): Active; Activity (Escherichia coli [14]): Active; Activity (Escherichia coli [16]): Active
12 | 40% | 45% |  |  |  |  | N#Cc1c(-c2ccccc2)c(-c2ccccc2)n(Cc2ccccc2)c1/N=C/c1ccc([N+](=O)[O-])cc1 | 
13 | 32% | 41% | 2.7 µM |  |  |  | N#Cc1c(-c2ccccc2)c(-c2ccccc2)n(Cc2ccccc2)c1NCc1ccccc1 | Stability [20]: Stable
14 | 11% | 28% |  |  |  |  | N#Cc1c(-c2ccccc2)c(-c2ccccc2)n(Cc2ccccc2)c1/N=C/c1cccnc1 | 
15 | inactive | inactive |  |  |  |  | N#Cc1c(-c2ccccn2)c(-c2ccccn2)n(Cc2ccccc2)c1N | 
